Data reported in US8877748B2, “Heterocyclic fused anthraquinone derivatives, manufacturing method and pharmaceutical composition using thereof” (National Defense Medical Center, priority 2012, dated 2014).

system: PC-3 prostate cancer cell line; assay: SRB assay cell viability, PC-3 prostate cancer cell line; format: cell-based, human; conditions: Homo sapiens, PC-3 prostate cancer cell line, Table II prints no unit, μM printed, read-out: SRB assay: 50% inhibition of cancer cell proliferation of sample concentration (IC50) of PC-3 prostate cancer cell line

IC50 [µM] | Molecule
3.25 | CCCNc1cc2c(c3nsnc13)C(=O)c1ccccc1C2=O [C6, 4-(propylamino)anthra-[2,1-c][1,2,5] thiadiazol-6,11-dione]
9.43 | CCN1CCN(c2cc3c(c4nsnc24)C(=O)c2ccccc2C3=O)CC1 [C9, 4-(4-ethyl-piperazin-1-yl)anthra[2,1-c] [1,2,5]thiadiazol-6,11-dione]
1.38 | O=C1c2ccccc2C(=O)c2c1cc(N1CCCCC1)c1nsnc21 [C11, 4-(piperidine-1-yl)anthra[2,1-c][1,2,5] thiadiazol-6,11-dione]
1.76 | CCCCNc1cc2c(c3nsnc13)C(=O)c1ccccc1C2=O [C12, 4-butylamino-anthra[2,1-c][1,2,5] thiadiazol-6,11-dione]
2.97 | CCNc1cc2c(c3nsnc13)C(=O)c1ccccc1C2=O [C13, 4-ethylamino anthra[2,1-c][1,2,5] thiadiazol-6,11-dione]
> 15 | COc1ccccc1Sc1cc2c(c3nsnc13)C(=O)c1ccccc1C2=O [C23, 4-(2-methoxy-phenyl-thio)anthra[2,1-c] [1,2,5]thiadiazol-6,11-dione]
> 15 | O=C1c2ccccc2C(=O)c2c1cc(Sc1ccc(Br)cc1)c1nsnc21 [C24, 4-(4-bromo-phenyl-thio)anthra[2,1-c] [1,2,5]thiadiazol-6,11-dione]
> 15 | CC(C)c1ccc(Sc2cc3c(c4nsnc24)C(=O)c2ccccc2C3=O)cc1 [C26, 4-(4-isopropyl-phenyl-thio)anthra[2,1-c] [1,2,5]thiadiazol-6,11-dione]
6.7 | O=C1c2ccccc2C(=O)c2c1cc(Sc1ccc(F)cc1)c1nsnc21 [C28, 4-(4-fluoro-phenyl-thio)anthra[2,1-c] [1,2,5]thiadiazol-6,11-dione]
> 15 | O=C1c2ccccc2C(=O)c2c1cc(Sc1ccccc1Cl)c1nsnc21 [C32, 4-(2-chloro-phenylthio)anthra[2,1-c] [1,2,5]thiadiazol-6,11-dione]
> 15 | O=C1c2ccccc2C(=O)c2c1cc(Sc1cc(Cl)c(Cl)cc1Cl)c1nsnc21 [C34, 4-(2,4,5-trichloro-phenylthio)anthra[2,1-C] [1,2,5]thiadiazol-6,11-dione]
8.82 | O=C1c2ccccc2C(=O)c2c1cc(Sc1cccc(F)c1)c1nsnc21 [C38, 4-(3-fluorophenylthio)anthra[2,1-c][1,2,5] thiadiazol-6,11-dione]

Molecule | IC50 [µM]
O=C1c2ccccc2C(=O)c2c1cc(O)c1nsnc21 [C4, Potassium 6,11-dioxo-6,11-dihydroanthra[2,1-c][1,2,5]thiadiazol-4-olate] | 18.5
CCCSc1cc2c(c3nsnc13)C(=O)c1ccccc1C2=O [C17, 4-(n-propylthio)-anthra[2,1-c][1,2,5] thiadiazol-6,11-dione] | 3.69

same assay, conditions: Homo sapiens, PC-3 prostate cancer cells, read-out: IC50 in PC-3 prostate cancer cells (cell viability analysis)

IC50 [µM] | Molecule
> 15 | O=C1c2ccccc2C(=O)c2c1cc(Sc1ccccc1Cl)c1nsnc21 [C32, 4-(2-chloro-phenylthio)anthra[2,1-c] [1,2,5]thiadiazol-6,11-dione]

same assay, conditions: PC-3 prostate cancer cell line, Table II prints no unit, μM printed, read-out: SRB assay: 50% inhibition of cancer cell proliferation of sample concentration (IC50) of PC-3 prostate cancer cell line

Molecule | IC50 [µM]
4-(2-fluoro-phenyl thio)anthra[2,1-c] [1,2,5]thiadiazol oxazole-6,11-dione [C33] | > 15
4-(2-mercapto-phenyl-thio)anthra[2,1-c] [1,2,5]thiadiazol oxazole-6,11-dione [C36] | > 15
4-(4-ethyl-phenyl-thio)anthra[2,1-c][1,2,5] thiadiazol oxazole-6,11-dione [C54] | 7.5
4-(4-nitrophenyl thio)anthra[2,1-c][1,2,5] thiadiazol oxazole-6,11-dione [C45] | 8.38
O=C1c2ccccc2C(=O)c2c1cc(Sc1cccc(Cl)c1Cl)c1nsnc21 [C30, 4-(2,3-dichloro-phenylthio)anthra[2,1-c] [1,2,5]thiadiazol oxazole-6,11-dione] | 11
CC(C)(C)c1ccc(Sc2cc3c(c4nsnc24)C(=O)c2ccccc2C3=O)cc1 [C31, 4-(4-tert-butyl-alkylphenyl-thio)anthra [2,1-c][1,2,5]thiadiazol-6,11-dione] | > 15

same assay, conditions: PC-3 prostate cancer cells, read-out: IC50 in PC-3 prostate cancer cells (cell viability analysis)

Molecule | IC50 [µM]
4-(2-fluoro-phenyl thio)anthra[2,1-c] [1,2,5]thiadiazol oxazole-6,11-dione [C33] | 5.48
4-(phenethylthiol)anthra[2,1-c][1,2,5] thiadiazol-6,11-dione [C29] | 19
